Experiments:
Format in all cases: in vivo
[1] = test system: barnyardgrass (Echinochloa crus-galli); assay: Test A greenhouse herbicide test, pre- and postemergence
Method in brief: (§1)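 Visual injury ratings, 0 (no effect) to 100 (complete control), versus untreated plants after roughly 10 d in a greenhouse. Compounds, formulated in a surfactant-containing non-phytotoxic solvent, were sprayed on loam–sand soil after sowing (pre) or on one- to two-leaf plants 2–10 cm tall (post).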

corn (Zea mays) = assay: as above; details: Postemergence; for Plant response rating, Corn: 125 g ai/ha; for Corn plant response rating: 500 g ai/ha, 0 to 100 scale, 0 is no effect, 100 is complete control
Method in brief: as §1

[2] = test system: foxtail, giant (giant foxtail, Setaria faberii); assay: as above
Method in brief: as §1

kochia (Kochia scoparia) [3] = assay: as above
Method in brief: as §1

[4] = test system: ragweed (common ragweed, Ambrosia elatior); assay: as above
Method in brief: as §1

[5] = test system: barnyardgrass (Echinochloa crus-galli); assay: Test B flooded paddy test; details: 250 g ai/ha, Flood; visual rating on scale of 0 to 100 where 0 is no effect and 100 is complete control; 13 to 15 d after treatment
Method in brief: (§2)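 Ratings use a 0-100 visual scale, where 100 is complete control, and compare treated plants with controls after 13 to 15 d of greenhouse growth. Compound went straight into paddy water kept 3 cm over the soil surface, applied to seedlings at the 2-leaf stage.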

[6] = test system: ducksalad (Heteranthera limosa); assay: Test B flooded paddy test; details: 250 g ai/ha, Flood; visual rating on scale of 0 to 100 where 0 is no effect and 100 is complete control; 13 to 15 d after treatment
Method in brief: as §2

rice (Oryza sativa) = assay: Test B flooded paddy test; details: 250 g ai/ha, Flood; visual rating on scale of 0 to 100 where 0 is no effect and 100 is complete control; 13 to 15 d after treatment
Method in brief: as §2

[7] = test system: sedge, umbrella (small-flower umbrella sedge, Cyperus difformis); assay: Test B flooded paddy test; details: 250 g ai/ha, Flood; visual rating on scale of 0 to 100 where 0 is no effect and 100 is complete control; 13 to 15 d after treatment
Method in brief: as §2

[8] = test system: chickweed (common chickweed, Stellaria media); assay: Test C greenhouse herbicide test, postemergence
Method in brief: (§3)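 Greenhouse postemergence spray on plants 2–18 cm tall; response judged visually after 13–15 d relative to untreated controls using a 0 (none) to 100 (full control) scale.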

kochia (Kochia scoparia) [9] = assay: Test C greenhouse herbicide test, postemergence
Method in brief: as §3

[10] = test system: oat, wild (wild oat, Avena fatua); assay: Test C greenhouse herbicide test, postemergence
Method in brief: as §3

[11] = Postemergence, 125 g ai/ha, visual rating after approx. 10 d, 0 to 100 scale (0 no effect, 100 complete control)
[12] = Postemergence, 500 g ai/ha, 0 to 100 scale, 0 is no effect, 100 is complete control
[13] = Preemergence, 125 g ai/ha, 0 to 100 scale where 0 is no effect and 100 is complete control
[14] = Preemergence, 500 g ai/ha, 0 to 100 scale, 0 no effect, 100 complete control
[15] = visual rating after approx. 10 d, 0 to 100 scale (0 no effect, 100 complete control)
[16] = Postemergence, 31 g ai/ha, 0 to 100 scale (0 no effect, 100 complete control)
[17] = Postemergence, 125 g ai/ha, scale 0 to 100, 0 is no effect, 100 is complete control
[18] = Postemergence, 250 g ai/ha, scale 0 to 100, 0 no effect, 100 complete control, 13 to 15 d
[19] = postemergence, 62 g ai/ha, scale 0 to 100, 0 no effect, 100 complete control
[20] = Postemergence, 8 g ai/ha, scale 0 to 100 (0 no effect, 100 complete control)
[21] = Postemergence, 16 g ai/ha, scale 0 to 100 (0 no effect, 100 complete control)
[22] = Postemergence, 125 g ai/ha, 0 to 100 scale where 0 is no effect and 100 is complete control
[23] = 0 to 100 scale where 0 is no effect and 100 is complete control

`Cc1cc2ccccc2c(-c2c(O)c(C)nn(C)c2=O)c1C` [Compound 34] was tested, and the “Plant response rating, Barnyardgrass” value [1, 11] was 30, the “Barnyardgrass plant response rating” value [1, 12] was 90 and the “Barnyardgrass plant response rating” value [1, 13] was 20. For the same molecule, the “Plant response rating, Barnyardgrass” value [1, 14] was 80, the “Plant response rating, Corn” value (corn (Zea mays); [15]) was 0 and the “Corn plant response rating” value (corn (Zea mays)) was 0. For the same molecule, the “Plant response rating, Foxtail, Giant” value [2, 11] was 30, the “Foxtail, Giant plant response rating” value [2, 12] was 90 and the “Foxtail, Giant plant response rating” value [2, 13] was 40. The “Plant response rating, Foxtail, Giant” value [2, 14] was 90, the “Plant response rating, Kochia” value (kochia (Kochia scoparia) [3]; [11]) was 70 and the “Kochia plant response rating” value (kochia (Kochia scoparia) [3]; [12]) was 80. For the same molecule, the “Kochia plant response rating” value (kochia (Kochia scoparia) [3]; [13]) was 30, the “Plant response rating, Kochia” value (kochia (Kochia scoparia) [3]; [14]) was 60 and the “Plant response rating, Ragweed” value [4, 11] was 90. For the same molecule, the “Ragweed plant response rating” value [4, 12] was 100, the “Ragweed plant response rating” value [4, 13] was 80 and the “Plant response rating, Ragweed” value [4, 14] was 90. For the same molecule, the “Plant response rating, Barnyardgrass” value [5] was 0, the “Plant response rating, Ducksalad” value [6] was 0 and the “Plant response rating, Rice” value (rice (Oryza sativa)) was 0. The “Plant response rating, Sedge, Umbrella” value [7] was 0, the “Chickweed plant response rating” value [8, 16] was 90 and the “Plant response rating, Chickweed” value [8, 17] was 90. The “Plant response rating, Chickweed” value [8, 18] was 95, the “Chickweed plant response rating” value [8, 19] was 90 and the “Kochia plant response rating” value (kochia (Kochia scoparia) [9]; [16]) was 10. For the same molecule, the “Plant response rating, Kochia” value (kochia (Kochia scoparia) [9]; [17]) was 60, the “Plant response rating, Kochia” value (kochia (Kochia scoparia) [9]; [18]) was 85 and the “Kochia plant response rating” value (kochia (Kochia scoparia) [9]; [19]) was 45. The “Oat, Wild plant response rating” value [10, 16] was 80, the “Plant response rating, Oat, Wild” value [10, 17] was 90 and the “Plant response rating, Oat, Wild” value [10, 18] was 90. The “Oat, Wild plant response rating” value [10, 19] was 85.
For `Cc1nn(C)c(=O)c(-c2c(C)sc3c(C)cc(Cl)cc23)c1O` [Compound 35], the “Plant response rating, Barnyardgrass” value [1, 11] was 50, the “Barnyardgrass plant response rating” value [1, 12] was 90 and the “Barnyardgrass plant response rating” value [1, 13] was 60. The “Plant response rating, Barnyardgrass” value [1, 14] was 90, the “Plant response rating, Corn” value (corn (Zea mays); [15]) was 0 and the “Corn plant response rating” value (corn (Zea mays)) was 30. The “Plant response rating, Foxtail, Giant” value [2, 11] was 90, the “Foxtail, Giant plant response rating” value [2, 12] was 90 and the “Foxtail, Giant plant response rating” value [2, 13] was 90. The “Plant response rating, Foxtail, Giant” value [2, 14] was 100, the “Plant response rating, Kochia” value (kochia (Kochia scoparia) [3]; [11]) was 80 and the “Kochia plant response rating” value (kochia (Kochia scoparia) [3]; [12]) was 100. For the same molecule, the “Kochia plant response rating” value (kochia (Kochia scoparia) [3]; [13]) was 40, the “Plant response rating, Kochia” value (kochia (Kochia scoparia) [3]; [14]) was 70 and the “Plant response rating, Ragweed” value [4, 11] was 50. The “Ragweed plant response rating” value [4, 12] was 80, the “Ragweed plant response rating” value [4, 13] was 70 and the “Plant response rating, Ragweed” value [4, 14] was 80. For the same molecule, the “Plant response rating, Barnyardgrass” value [5] was 0, the “Plant response rating, Ducksalad” value [6] was 75 and the “Plant response rating, Rice” value (rice (Oryza sativa)) was 0. For the same molecule, the “Plant response rating, Sedge, Umbrella” value [7] was 65, the “Plant response rating, Chickweed” value [8, 20] was 90 and the “Plant response rating, Chickweed” value [8, 21] was 90. For the same molecule, the “Chickweed plant response rating” value [8, 16] was 95, the “Chickweed plant response rating” value [8, 19] was 95 and the “Plant response rating, Kochia” value (kochia (Kochia scoparia) [9]; [21]) was 30. For the same molecule, the “Kochia plant response rating” value (kochia (Kochia scoparia) [9]; [16]) was 30, the “Kochia plant response rating” value (kochia (Kochia scoparia) [9]; [19]) was 40 and the “Plant response rating, Oat, Wild” value [10, 20] was 10. The “Plant response rating, Oat, Wild” value [10, 21] was 30, the “Oat, Wild plant response rating” value [10, 16] was 40 and the “Oat, Wild plant response rating” value [10, 19] was 60.
With `Cc1nn(C)c(=O)c(-c2ccc(F)c3ccccc23)c1O` [Compound 41] the “Plant response rating, Barnyardgrass” value [1, 22] was 30, the “Barnyardgrass plant response rating” value [1, 12] was 90 and the “Barnyardgrass plant response rating” value [1, 13] was 20. For the same molecule, the “Plant response rating, Barnyardgrass” value [1, 14] was 90, the “Plant response rating, Corn” value (corn (Zea mays); [23]) was 20 and the “Corn plant response rating” value (corn (Zea mays)) was 70. For the same molecule, the “Plant response rating, Foxtail, Giant” value [2, 22] was 70, the “Foxtail, Giant plant response rating” value [2, 12] was 100 and the “Foxtail, Giant plant response rating” value [2, 13] was 70. For the same molecule, the “Plant response rating, Foxtail, Giant” value [2, 14] was 90, the “Plant response rating, Kochia” value (kochia (Kochia scoparia) [3]; [22]) was 100 and the “Kochia plant response rating” value (kochia (Kochia scoparia) [3]; [12]) was 100. For the same molecule, the “Kochia plant response rating” value (kochia (Kochia scoparia) [3]; [13]) was 90, the “Plant response rating, Kochia” value (kochia (Kochia scoparia) [3]; [14]) was 100 and the “Plant response rating, Ragweed” value [4, 22] was 70. The “Ragweed plant response rating” value [4, 12] was 100, the “Ragweed plant response rating” value [4, 13] was 80 and the “Plant response rating, Ragweed” value [4, 14] was 90. The “Plant response rating, Barnyardgrass” value [5] was 30, the “Plant response rating, Ducksalad” value [6] was 40 and the “Plant response rating, Rice” value (rice (Oryza sativa)) was 0. The “Plant response rating, Sedge, Umbrella” value [7] was 40, the “Chickweed plant response rating” value [8, 16] was 95 and the “Plant response rating, Chickweed” value [8, 17] was 90. For the same molecule, the “Plant response rating, Chickweed” value [8, 18] was 100, the “Chickweed plant response rating” value [8, 19] was 95 and the “Kochia plant response rating” value (kochia (Kochia scoparia) [9]; [16]) was 100. The “Plant response rating, Kochia” value (kochia (Kochia scoparia) [9]; [17]) was 100, the “Plant response rating, Kochia” value (kochia (Kochia scoparia) [9]; [18]) was 100 and the “Kochia plant response rating” value (kochia (Kochia scoparia) [9]; [19]) was 100. For the same molecule, the “Oat, Wild plant response rating” value [10, 16] was 55, the “Plant response rating, Oat, Wild” value [10, 17] was 90 and the “Plant response rating, Oat, Wild” value [10, 18] was 95. For the same molecule, the “Oat, Wild plant response rating” value [10, 19] was 90.
With `CCc1sc2ccc(C)cc2c1-c1c(O)c(C)nn(C)c1=O` [Compound 47] the “Plant response rating, Barnyardgrass” value [1, 22] was 40, the “Barnyardgrass plant response rating” value [1, 12] was 80 and the “Barnyardgrass plant response rating” value [1, 13] was 70. For the same molecule, the “Plant response rating, Barnyardgrass” value [1, 14] was 90, the “Plant response rating, Corn” value (corn (Zea mays); [23]) was 0 and the “Corn plant response rating” value (corn (Zea mays)) was 10. The “Plant response rating, Foxtail, Giant” value [2, 22] was 80, the “Foxtail, Giant plant response rating” value [2, 12] was 80 and the “Foxtail, Giant plant response rating” value [2, 13] was 70. The “Plant response rating, Foxtail, Giant” value [2, 14] was 80, the “Plant response rating, Kochia” value (kochia (Kochia scoparia) [3]; [22]) was 90 and the “Kochia plant response rating” value (kochia (Kochia scoparia) [3]; [12]) was 90. The “Kochia plant response rating” value (kochia (Kochia scoparia) [3]; [13]) was 10, the “Plant response rating, Kochia” value (kochia (Kochia scoparia) [3]; [14]) was 90 and the “Plant response rating, Ragweed” value [4, 22] was 100. The “Ragweed plant response rating” value [4, 12] was 100, the “Ragweed plant response rating” value [4, 13] was 80 and the “Plant response rating, Ragweed” value [4, 14] was 90. For the same molecule, the “Plant response rating, Barnyardgrass” value [5] was 0, the “Plant response rating, Ducksalad” value [6] was 0 and the “Plant response rating, Rice” value (rice (Oryza sativa)) was 0. The “Plant response rating, Sedge, Umbrella” value [7] was 0, the “Chickweed plant response rating” value [8, 16] was 90 and the “Plant response rating, Chickweed” value [8, 17] was 98. The “Plant response rating, Chickweed” value [8, 18] was 98, the “Chickweed plant response rating” value [8, 19] was 90 and the “Kochia plant response rating” value (kochia (Kochia scoparia) [9]; [16]) was 75. The “Plant response rating, Kochia” value (kochia (Kochia scoparia) [9]; [17]) was 95, the “Plant response rating, Kochia” value (kochia (Kochia scoparia) [9]; [18]) was 98 and the “Kochia plant response rating” value (kochia (Kochia scoparia) [9]; [19]) was 90. The “Oat, Wild plant response rating” value [10, 16] was 5, the “Plant response rating, Oat, Wild” value [10, 17] was 30 and the “Plant response rating, Oat, Wild” value [10, 18] was 50. For the same molecule, the “Oat, Wild plant response rating” value [10, 19] was 10.

From patent publication US10597388B2, “Pyridazinone herbicides” (FMC CORPORATION, priority 2014, dated 2020)
